Values of other authors, collected in paper PMC6609541, “Enterohepatic circulation of glucuronide metabolites of drugs in dog” (Pharmacology Research & Perspectives, 2019).
Where two headings read alike, the source gives them in different places.

Settings: human, cited from earlier work; for EHC: enterohepatic circulation ref 11

## Cc1ccc([C@@H]2O[C@H](CO)[C@@H](O)[C@H](O)[C@H]2O)cc1Cc1ccc(-c2ccc(F)cc2)s1 [Canagliflozin]
  EHC: No
Listed as canagliflozin
  EHC: negligible
From human 14C study ref 5
  Urinary excretion % of glucuronide: Moderate ^d (moderate 30%‐70%)
